Data on 14 compounds can be found in patent publication US11339130B1 (Blade Therapeutics, Inc., priority 2016, dated 2022).

One assay has as its target T1, Human Calpain 2/NS1 (Homo sapiens, UniProt P17655).
T1 sequence (P17655 1-700): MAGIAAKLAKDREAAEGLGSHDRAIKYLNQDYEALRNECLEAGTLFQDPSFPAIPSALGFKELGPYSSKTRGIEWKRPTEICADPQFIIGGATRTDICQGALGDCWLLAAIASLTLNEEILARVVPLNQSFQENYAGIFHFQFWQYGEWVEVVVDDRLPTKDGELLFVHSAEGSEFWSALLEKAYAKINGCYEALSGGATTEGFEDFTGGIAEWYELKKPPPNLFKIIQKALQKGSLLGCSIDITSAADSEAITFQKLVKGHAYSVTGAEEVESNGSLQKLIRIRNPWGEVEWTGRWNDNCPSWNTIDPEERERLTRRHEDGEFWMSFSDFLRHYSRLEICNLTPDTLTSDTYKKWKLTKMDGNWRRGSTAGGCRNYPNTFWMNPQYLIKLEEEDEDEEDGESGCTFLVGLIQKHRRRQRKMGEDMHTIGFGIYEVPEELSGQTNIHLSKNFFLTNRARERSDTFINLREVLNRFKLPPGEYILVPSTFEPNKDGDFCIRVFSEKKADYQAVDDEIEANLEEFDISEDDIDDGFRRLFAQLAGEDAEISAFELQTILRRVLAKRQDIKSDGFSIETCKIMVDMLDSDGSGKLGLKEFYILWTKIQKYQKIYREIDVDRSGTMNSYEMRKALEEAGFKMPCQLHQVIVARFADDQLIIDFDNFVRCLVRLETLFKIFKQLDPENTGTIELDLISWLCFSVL
T1 sequence (P04632 1-268 partner): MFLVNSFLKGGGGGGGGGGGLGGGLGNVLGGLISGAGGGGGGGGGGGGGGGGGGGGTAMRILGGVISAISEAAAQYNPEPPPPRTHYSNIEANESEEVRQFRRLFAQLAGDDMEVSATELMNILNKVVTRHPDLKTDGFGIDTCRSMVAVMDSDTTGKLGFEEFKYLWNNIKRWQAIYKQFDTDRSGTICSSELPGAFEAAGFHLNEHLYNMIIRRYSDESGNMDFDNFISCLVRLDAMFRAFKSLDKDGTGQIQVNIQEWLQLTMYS
Nature of the assay: Calpain inhibition continuous fluorescence (FRET) assay, Human Calpain 2/NS1. Format: biochemical. To be noted: read-out: Human Calpain 2/NS1 IC50. In short, it runs like this:
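Fluorescence increase from the cleaved 5-FAM/QXL 520 substrate, read at 490/520 nm, gave activity. Calcium was supplied with the substrate to activate the enzyme in situ after a 25C enzyme-inhibitor preincubation, and IC50s were fit from initial slopes.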

Assay [1] concerns Bleomycin-induced pulmonary fibrosis. Kind of assay: Bleomycin-induced pulmonary fibrosis in mice (14 d). Format: in vivo. Also on record: concentration or dose not given beside the values. An excerpt: The method for inducing pulmonary fibrosis in mice is described in Current Protocols in Pharmacology: 5.46.1, entitled “Mouse Models of Bleomycin-induced Pulmonary Fibrosis”. In order to induce pulmonary fibrosis, 6-8 week old C57B1/6 mice or Wistar rats are instilled once oropharyngeally with ˜1.5 U/kg of bleomycin sulfate (Calbiochem, Billerica, Mass.). Briefly, for oropharyngeal administration of bleomycin, mice or rats are anesthetized with isofluorane and then suspended on its back at a˜60 degree angle on an inclined surface with a rubber band running under the upper incisors. The airway is opened while securing the tongue with one arm of padded forceps and bleomycin is administered into the back of the oral cavity with a syringe. The animal's tongue and mouth were held open until the liquid disappeared from the oral cavity. The animal was then returned to its cage and monitored until fully recovered from the anesthesia. The study is terminated on day 14-28 for oropharyngeally administered bleomycin in mice and rats. All animals are euthanized at the termination of the studies by cervical dislocation for gross necropsy, and blood collected by cardiac puncture. The lungs from each animal are dissected from the animal and weighed. The BAL cells and fluid are collected by lavaging the lung twice with 0.5 ml Hanks Balanced Salt Solution (HBSS; VWR, Radnor, Pa.). After collection of BAL cells and fluid, lungs are dissected and removed from each animal. Whole lungs are inflated with 10% NBF and then fixed in 10% NBF for histology. Severity of fibrosis in the lungs is evaluated using a modified Ashcroft score (Hubner, Biotechniques, 2008) and subjective fibrosis scores. Lung sections were graded by averaging 5 microscopic fields at 20× on an Ashcroft scale as follows: Grade 0=normal lung; Grade 1=minimally detectable thickening of alveolar walls; Grade 2=Mild thickening of alveolar walls. Grade 3=moderate contiguous thickening of walls with fibrous nodules; Grade 4=Thickened septae and confluent fibrotic masses that total less than 10% of microscopic field. Grade 5=increased fibrosis with definite damage to lung structure and formation of fibrous bands or small fibrous masses between 10 and 50% of microscopic field; Grade 6=Large contiguous fibrotic masses consolidating more than 50% of microscopic field. Grade 7=severe distortion of structure and large fibrous areas; Grade 8=total fibrous obliteration of lung within microscopic field. Each slide was examined at 20× magnification and the score for 5 separate representative fields was averaged for each animal. Subjective scores (H&E and Trichrome-stained slides) were evaluated at 2× magnification for an overall assessment of pathologic change. A score of 0=no detectible findings to 5=complete involvement of consolidation. Scores in each group were averaged and standard error was calculated using Excel 2010. Dense, organized inflammatory exudates were scored as fibrosis. Other tissues were evaluated microscopically and scored routinely.

The test system of assay [2] is Calpain activity in SH-SY5Y cells. Nature of the assay: SH-SY5Y + AMC fluorescence assay (Suc-LLVY-AMC substrate). Format: cell-based. The settings on record: read-out: SH-SY5Y + AMC IC50.

Structures are written as SMILES. Read-outs that look alike come from different tables or passages of the source.

For the compound `Cc1nc(-c2ccccc2F)c(C(=O)NC(Cc2ccccc2)C(=O)C(N)=O)o1` (stereo not shown) [Compound 405, N-(4-amino-3,4-dioxo-1-phenylbutan-2-yl)-4-(2-fluorophenyl)-2-methyloxazole-5-carboxamide], the IC50 on Human Calpain 2/NS1 is under 3 µM. For the same compound, in assay [1], the “% reduction compared to vehicle” value was −33%.

As to `NC(=O)C(=O)[C@H](Cc1ccccc1)NC(=O)c1nsnc1-c1ccccc1` [Compound 72, (S)—N-(4-amino-3,4-dioxo-1-phenylbutan-2-yl)-4-phenyl-1,2,5-thiadiazole-3-carboxamide], the IC50 is under 10 µM in assay [2] (Column E) and under 3 µM at Human Calpain 2/NS1 (Column B). Further, the “% reduction compared to vehicle” value in assay [1] is listed as −35%.

As for `Cc1nc(-c2cccc(F)c2)c(C(=O)NC(Cc2ccccc2)C(=O)C(N)=O)o1` (stereo not shown) [Compound 404, N-(4-amino-3,4-dioxo-1-phenylbutan-2-yl)-4-(3-fluorophenyl)-2-methyloxazole-5-carboxamide], the IC50 was under 10 µM in assay [2] and under 3 µM at Human Calpain 2/NS1. Further, the “% reduction compared to vehicle” value in assay [1] is −24%.

In the case of `Cn1cc(C(=O)NC(Cc2ccccc2)C(=O)C(N)=O)c(-c2ccccc2F)n1` (stereo not shown) [Compound 484, N-(4-amino-3,4-dioxo-1-phenylbutan-2-yl)-3-(2-fluorophenyl)-1-methyl-1H-pyrazole-4-carboxamide], the IC50 is under 10 µM in assay [2] and under 3 µM on Human Calpain 2/NS1. In assay [1], the “% reduction compared to vehicle” value is listed as −35%.

With `CCCC[C@H](NC(=O)c1oc(C)nc1-c1ccccc1)C(=O)C(N)=O` [Compound 265, (S)—N-(1-amino-1,2-dioxoheptan-3-yl)-2-methyl-4-phenyloxazole-5-carboxamide], the figures for the IC50 (in assay [2] (Column E); at Human Calpain 2/NS1 (Column B)) were over 25 µM and under 3 µM, respectively.

`NC(=O)C(=O)C(Cc1ccccc1)NC(=O)c1cn(C2CC2)nc1-c1ccccc1` (stereo not shown) [Compound 406, N-(4-amino-3,4-dioxo-1-phenylbutan-2-yl)-1-cyclopropyl-3-phenyl-1H-pyrazole-4-carboxamide]: the IC50 in assay [2] was under 10 µM; on Human Calpain 2/NS1 it was under 3 µM. The “% reduction compared to vehicle” value in assay [1] is −25%.

With `NC(=O)C(=O)[C@H](Cc1ccccc1)NC(=O)c1snnc1-c1ccccc1` [Compound 44, (S)—N-(4-amino-3,4-dioxo-1-phenylbutan-2-yl)-4-phenyl-1,2,3-thiadiazole-5-carboxamide], the IC50 is over 25 µM in assay [2] (Column E) and under 3 µM on Human Calpain 2/NS1 (Column B).

For `NC(=O)C(=O)C(Cc1ccccc1)NC(=O)c1cn(C(F)F)nc1-c1ccccc1` (stereo not shown) [Compound 403, N-(4-amino-3,4-dioxo-1-phenylbutan-2-yl)-1-(difluoromethyl)-3-phenyl-1H-pyrazole-4-carboxamide], the figures for the IC50 (in assay [2]; on Human Calpain 2/NS1) were under 10 µM and under 3 µM, respectively. Besides, in assay [1], the “% reduction compared to vehicle” value is recorded as −29%.

Consider `NC(=O)C(=O)[C@H](Cc1ccccc1)NC(=O)c1cn(C2CC2)nc1-c1ccccc1` [Compound 250, (S)—N-(4-amino-3,4-dioxo-1-phenylbutan-2-yl)-1-cyclopropyl-3-phenyl-1H-pyrazole-4-carboxamide], for which the IC50 in assay [2] (Column E) was 10 to 25 µM; on Human Calpain 2/NS1 (Column B), under 3 µM.

Take `Cc1nc(-c2ccccc2)c(C(=O)NC(Cc2ccccc2)C(=O)C(N)=O)o1` (stereo not shown) [Compound 357, N-(4-amino-3,4-dioxo-1-phenylbutan-2-yl)-2-methyl-4-phenyloxazole-5-carboxamide]: the IC50 in assay [2] is under 10 µM; at Human Calpain 2/NS1, under 3 µM. Besides, the “% reduction compared to vehicle” value in assay [1] is −13%.

As to `NC(=O)C(=O)[C@H](Cc1ccccc1)NC(=O)c1cnoc1-c1ccccc1` [Compound 60, (S)—N-(4-amino-3,4-dioxo-1-phenylbutan-2-yl)-5-phenylisoxazole-4-carboxamide], the results for the IC50 (in assay [2] (Column E); on Human Calpain 2/NS1 (Column B)) were under 10 µM and under 3 µM, respectively. In assay [1], the “% reduction compared to vehicle” value is listed as −24%.

Turning to `Cc1cc(C(=O)NC(Cc2ccccc2)C(=O)C(N)=O)n(-c2ccccn2)n1` (stereo not shown) [Compound 495, N-(4-amino-3,4-dioxo-1-phenylbutan-2-yl)-3-methyl-1-(pyridin-2-yl)-1H-pyrazole-5-carboxamide], the IC50 in assay [2] was under 10 µM; at Human Calpain 2/NS1, under 3 µM. The “% reduction compared to vehicle” value in assay [1] is −27%.

For `Cn1cc(C(=O)N[C@@H](Cc2ccccc2)C(=O)C(N)=O)c(-c2ccccc2)n1` [Compound 32, (S)—N-(4-amino-3,4-dioxo-1-phenylbutan-2-yl)-1-methyl-3-phenyl-1H-pyrazole-4-carboxamide], the IC50 in assay [2] (Column E) is over 25 µM; on Human Calpain 2/NS1 (Column B), under 3 µM.

As for `Cl.Cn1cc(C(=O)NC(Cc2ccccc2)C(=O)C(N)=O)c(-c2cccc(F)c2)n1` (stereo not shown) [Compound 485, N-(4-amino-3,4-dioxo-1-phenylbutan-2-yl)-3-(3-fluorophenyl)-1-methyl-1H-pyrazole-4-carboxamide hydrochloride], the IC50 in assay [2] was 10 to 25 µM; at Human Calpain 2/NS1, under 3 µM. Moreover, the “% reduction compared to vehicle” value in assay [1] was −41%.
